Measurements taken from patent US20250275988A1, “FORMULATION FOR TREATING URINARY SYSTEM DISORDERS” (WATERSHED MEDICAL, INC., priority 2022, published 2025).
Values after ≈ are worked out from the molar mass of the structure shown. Read-outs that look alike come from different tables or passages of the source.

Legend:
[1] = test system: MDR Ecoli and non-MDR Ecoli isolates; test: MIC90 of antimicrobial agents; type: cell-based
[2] = density and max drug loading of antimicrobial agents considered for carrier particles; type: physicochemical; conditions: Table 7
density of materials = type: physicochemical; conditions: Table 4
[3] = cited from earlier work
[4] = anti-bacterial properties of SSD degradation products; conditions: compared with SSD before degradation in the bladder
From the text: These degradation products include, for example, sulfanilic acid; sulfanilamide; sulfaguanidine, the guanidine derivative of sulfanilamide; and […].

[5] = agents marked *: tested against both MDR Ecoli and non-MDR Ecoli isolates
[6] = tested against non-MDR Ecoli isolates only
[7] = tested against non-MDR Ecoli isolates only, read-out: MIC90
[8] = agents marked *: tested against both MDR Ecoli and non-MDR Ecoli isolates, read-out: MIC90

Colistin
MIC90 [1, 5]: ≤0.5 ppm

Cefoperazone-sulbactam
MIC90 [1, 6]: 4 ppm

CC(C)(O/N=C(\C(=O)N[C@@H]1C(=O)N2C(C(=O)[O-])=C(C[n+]3ccccc3)CS[C@H]12)c1csc(N)n1)C(=O)O [Ceftazidime]
MIC90 [1, 7]: 8 µg/mL (≈ 14.6 µM) | Density [2]: 1.6 g/mL

CCCCCCCCCCCCCC(=O)OCC(COC(=O)CCCCCCCCCCCCC)OC(=O)CCCCCCCCCCCCC [Glyceryl trimyristate]
Density (density of materials): 0.885 g/mL

NCC[C@H](O)C(=O)N[C@@H]1C[C@H](N)[C@@H](O[C@H]2O[C@H](CN)[C@@H](O)[C@H](O)[C@H]2O)[C@H](O)[C@H]1O[C@H]1O[C@H](CO)[C@@H](O)[C@H](N)[C@H]1O [Amikacin]
MIC90 [1, 8]: 4 µg/mL (≈ 6.83 µM) | solubility in water [3]: 50 mg/mL (≈ 85400 µM) | Density [2]: 1.6 g/mL

CCCCCCCCCCCCCCCCCCCCCC(=O)OCC(O)CO (centres unmarked) [Glyceryl behenate]
Density (density of materials): 0.942 g/mL

Nc1ccc(S(N)(=O)=O)cc1 [sulfanilamide]
anti-bacterial properties [4]: comparable to the original compound

C[C@@H](O)[C@H]1C(=O)N2C(C(=O)O)=C(S[C@@H]3CN[C@H](CNS(N)(=O)=O)C3)[C@H](C)[C@H]12 [Doripenem]
MIC90 [1, 7]: ≤ 0.12 µg/mL

CCCCCCCCCCCCCCCCCCO [Stearyl alcohol]
Density (density of materials): 0.812 g/mL

C[C@@H](O)[C@H]1C(=O)N2C(C(=O)O)=C(S[C@@H]3CN[C@H](C(=O)Nc4cccc(C(=O)O)c4)C3)[C@H](C)[C@H]12 [Ertapenem]
MIC90 [1, 8]: 0.03 µg/mL (≈ 0.0631 µM) | Density [2]: 1.6 g/mL

CCCCCCCCCCCCCCCC(=O)OCC(COC(=O)CCCCCCCCCCCCCCC)OC(=O)CCCCCCCCCCCCCCC [Glyceryl tripalmitate]
Density (density of materials): 0.8752 g/mL

CO/N=C(\C(=O)N[C@@H]1C(=O)N2C(C(=O)[O-])=C(C[N+]3(C)CCCC3)CS[C@H]12)c1csc(N)n1 [Cefepime]
MIC90 [1, 7]: 8 µg/mL (≈ 16.6 µM) | Density [2]: 1.6 g/mL

CCCCCCCCCCCCCCCCCC(=O)OCC(COC(=O)CCCCCCCCCCCCCCCCC)OC(=O)CCCCCCCCCCCCCCCCC [Glyceryl tristearate]
Density (density of materials): 0.862 g/mL

C[C@@H](O)[C@H]1C(=O)N2C(C(=O)O)=C(SCCN=CN)C[C@H]12 [Imipenem]
MIC90 [1, 8]: ≤ 0.12 µg/mL

Nc1ccc(S(=O)(=O)O)cc1 [sulfanilic acid]
anti-bacterial properties [4]: comparable to the original compound

C[C@@H](O)[C@H]1C(=O)N2C(C(=O)O)=C(S[C@@H]3CN[C@H](C(=O)N(C)C)C3)[C@H](C)[C@H]12 [Meropenem]
MIC90 [1, 7]: ≤ 0.06 µg/mL | Density [2]: 1.4 g/mL

Piperacillin-tazobactam
MIC90 [1, 6]: 4 ppm | Density [2]: 1.5 g/mL

Cefoperazone-avibactam
MIC90 [1, 5]: 0.25 ppm | Density [2]: 1.5 g/mL

CN(C)c1cc(NC(=O)CNC(C)(C)C)c(O)c2c1C[C@H]1C[C@H]3[C@H](N(C)C)C(O)=C(C(N)=O)C(=O)[C@@]3(O)C(O)=C1C2=O [Tigecycline]
MIC90 [1]: 0.25 µg/mL (≈ 0.427 µM) | Density [2]: 1.5 g/mL

C[C@H]1[C@H](NC(=O)/C(=N\OC(C)(C)C(=O)O)c2csc(N)n2)C(=O)N1S(=O)(=O)O [Aztreoman]
MIC90 [1, 7]: 16 µg/mL (≈ 36.7 µM) | Density [2]: 1.83 g/mL

[H]/N=C(/N)NS(=O)(=O)c1ccc(N)cc1 [sulfaguanidine]
anti-bacterial properties [4]: comparable to the original compound

Cefoperazone-tazobacatam
MIC90 [1, 5]: 0.5 ppm | Density [2]: 1.5 g/mL

[H]/N=C(\N/C(=N/[H])NCCCCCCNC(=N)NC(=N)Nc1ccc(Cl)cc1)Nc1ccc(Cl)cc1 [Chlorohexidine]
MIC90 [1, 7]: 3 µg/mL (≈ 5.94 µM) | Density [2]: 1.06 g/mL

CO[C@@]1(NC(=O)Cc2cccs2)C(=O)N2C(C(=O)O)=C(COC(N)=O)CS[C@@H]21 [Cefoxitin]
MIC90 [1, 7]: 16 µg/mL (≈ 37.4 µM) | Density [2]: 1.6 g/mL

Nc1ccccn1 [2-aminopyridine]
anti-bacterial properties [4]: comparable to the original compound

NC[C@H]1O[C@H](O[C@H]2[C@H](O)[C@@H](O[C@H]3O[C@H](CO)[C@@H](O)[C@H](N)[C@H]3O)[C@H](N)C[C@@H]2N)[C@H](N)C[C@@H]1O [Tobramycin]
MIC90 [1, 7]: 8 µg/mL (≈ 17.1 µM) | Density [2]: 1.5 g/mL

Polymxin B
MIC90 [1, 5]: 1 ppm
